Measurements: ChEMBL document CHEMBL1141566, “Synthesis and antitumor evaluation of bis aza-anthracene-9,10-diones and bis aza-anthrapyrazole-6-ones” (2008)

What was measured:
HT-29 [1] = assay: Effect on proapoptotic TRADD gene expression in human HT29 cells after 6 hrs; assay type: functional
HT-29 [2] = assay: Effect on apoptotic CFLAR gene expression in human HT29 cells after 6 hrs; assay type: functional
HT-29 [3] = assay: Effect on proapoptotic BAX gene expression in human HT29 cells after 12 hrs; assay type: functional
HT-29 [4] = assay: Effect on proapoptotic CIDEB gene expression in human HT29 cells after 12 hrs; assay type: functional
[5] = Ratio of Kapp for synthetic poly(dA-dT)]2 oligonucleotide to Kapp for synthetic poly(dG-dC)]2 oligonucleotide
HT-29 [6] = assay: Effect on apoptotic BIRC8 gene expression in human HT29 cells after 6 hrs; assay type: functional
HT-29 [7] = assay: Effect on apoptotic NOL3 gene expression in human HT29 cells after 12 hrs; assay type: functional
HT-29 [8] = assay: Effect on proapoptotic TRAF4 gene expression in human HT29 cells after 6 hrs; assay type: functional
HT-29 [9] = assay: Effect on apoptosis in human HT29 PI+/AnnV+ cells after 24 hrs by biparametric flow cytometric analysis; assay type: functional; settings: HT-29, 24 h, read-out: LC50 (the source's name)
HT-29 [10] = assay: Effect on proapoptotic TNFRSF11B gene expression in human HT29 cells after 6 hrs; assay type: functional
HT-29 [11] = assay: Effect on proapoptotic BAK1 gene expression in human HT29 cells after 12 hrs; assay type: functional
HT-29 [12] = assay: Effect on proapoptotic CARD8 gene expression in human HT29 cells after 6 hrs; assay type: functional
HT-29 [13] = assay: Effect on proapoptotic CD70 gene expression in human HT29 cells after 12 hrs; assay type: functional
HT-29 [14] = assay: Effect on apoptosis in human HT29 PI-/AnnV+ cells after 24 hrs by biparametric flow cytometric analysis; assay type: functional; settings: HT-29, 24 h, read-out: LC50 (the source's name)
HT-29 [15] = assay: Effect on proapoptotic CASP8 gene expression in human HT29 cells after 6 hrs; assay type: functional
HT-29 [16] = assay: Effect on proapoptotic CD27 gene expression in human HT29 cells after 6 hrs; assay type: functional
HT-29 [17] = assay: Effect on apoptotic BIRC4 gene expression in human HT29 cells after 6 hrs; assay type: functional
HT-29 [18] = assay: Effect on proapoptotic CASP9 gene expression in human HT29 cells after 6 hrs; assay type: functional
HT-29 [19] = assay: Effect on proapoptotic NOD1 gene expression in human HT29 cells after 6 hrs; assay type: functional
HT-29 [20] = assay: Effect on proapoptotic BCLAF1 gene expression in human HT29 cells after 12 hrs; assay type: functional
HT-29 [21] = assay: Effect on apoptotic BNIP2 gene expression in human HT29 cells after 12 hrs; assay type: functional
HT-29 [22] = assay: Effect on apoptotic NOL3 gene expression in human HT29 cells after 6 hrs; assay type: functional
HT-29 [23] = assay: Effect on proapoptotic BNIP3L gene expression in human HT29 cells after 12 hrs; assay type: functional
HT-29 [24] = assay: Effect on proapoptotic CARD6 gene expression in human HT29 cells after 6 hrs; assay type: functional
HT-29 [25] = assay: Effect on proapoptotic BFAR gene expression in human HT29 cells after 12 hrs; assay type: functional
HT-29 [26] = assay: Effect on proapoptotic CASP7 gene expression in human HT29 cells after 6 hrs; assay type: functional
HT-29 [27] = assay: Effect on apoptosis in human HT29 PI-/AnnV- cells after 6 hrs by biparametric flow cytometric analysis; assay type: functional; settings: HT-29, 6 h, read-out: LC50 (the source's name)
HT-29 [28] = assay: Effect on apoptosis in human HT29 PI+/AnnV+ cells after 6 hrs by biparametric flow cytometric analysis; assay type: functional; settings: HT-29, 6 h, read-out: LC50 (the source's name)
HT-29 [29] = assay: Effect on apoptotic ABL1 gene expression in human HT29 cells after 12 hrs; assay type: functional
HT-29 [30] = assay: Effect on proapoptotic BNIP1 gene expression in human HT29 cells after 6 hrs; assay type: functional
HT-29 [31] = assay: Effect on apoptosis in human HT29 PI-/AnnV- cells after 24 hrs by biparametric flow cytometric analysis; assay type: functional; settings: HT-29, 24 h, read-out: LC50 (the source's name)
HT-29 [32] = assay: Effect on apoptotic BCL2L10 gene expression in human HT29 cells after 6 hrs; assay type: functional
HT-29 [33] = assay: Effect on apoptosis in human HT29 PI-/AnnV- cells after 12 hrs by biparametric flow cytometric analysis; assay type: functional; settings: HT-29, 12 h, read-out: LC50 (the source's name)
HT-29 [34] = assay: Effect on apoptotic BIRC3 gene expression in human HT29 cells after 6 hrs; assay type: functional
HT-29 [35] = assay: Effect on apoptotic NAIP gene expression in human HT29 cells after 6 hrs; assay type: functional
HT-29 [36] = assay: Effect on apoptotic BRAF gene expression in human HT29 cells after 6 hrs; assay type: functional
HT-29 [37] = assay: Effect on proapoptotic BCL2 gene expression in human HT29 cells after 6 hrs; assay type: functional
HT-29 [38] = assay: Effect on apoptosis in human HT29 PI+/AnnV- cells after 6 hrs by biparametric flow cytometric analysis; assay type: functional; settings: HT-29, 6 h, read-out: LC50 (the source's name)
HT-29 [39] = assay: Effect on apoptosis in human HT29 PI+/AnnV- cells after 24 hrs by biparametric flow cytometric analysis; assay type: functional; settings: HT-29, 24 h, read-out: LC50 (the source's name)
HT-29 [40] = assay: Effect on proapoptotic TRAF3 gene expression in human HT29 cells after 6 hrs; assay type: functional
HT-29 [41] = assay: Effect on apoptotic BNIP2 gene expression in human HT29 cells after 6 hrs; assay type: functional
HT-29 [42] = assay: Effect on proapoptotic CASP7 gene expression in human HT29 cells after 12 hrs; assay type: functional
HT-29 [43] = assay: Effect on apoptosis in human HT29 PI+/AnnV+ cells after 12 hrs by biparametric flow cytometric analysis; assay type: functional; settings: HT-29, 12 h, read-out: LC50 (the source's name)
HT-29 [44] = assay: Effect on apoptotic BCL2L10 gene expression in human HT29 cells after 12 hrs; assay type: functional
HT-29 [45] = assay: Effect on proapoptotic FAS gene expression in human HT29 cells after 6 hrs; assay type: functional
HT-29 [46] = assay: Effect on proapoptotic BNIP3L gene expression in human HT29 cells after 6 hrs; assay type: functional
HT-29 [47] = assay: Effect on apoptotic ABL1 gene expression in human HT29 cells after 6 hrs; assay type: functional
HT-29 [48] = assay: Effect on apoptotic GADD45A gene expression in human HT29 cells after 6 hrs; assay type: functional
HT-29 [49] = assay: Effect on proapoptotic TRADD gene expression in human HT29 cells after 12 hrs; assay type: functional
HT-29 [50] = assay: Effect on proapoptotic BAK1 gene expression in human HT29 cells after 6 hrs; assay type: functional
HT-29 [51] = assay: Effect on proapoptotic CIDEB gene expression in human HT29 cells after 6 hrs; assay type: functional
HT-29 [52] = assay: Effect on apoptotic MCL1 gene expression in human HT29 cells after 6 hrs; assay type: functional
HT-29 [53] = assay: Effect on proapoptotic BFAR gene expression in human HT29 cells after 6 hrs; assay type: functional
HT-29 [54] = assay: Effect on proapoptotic TRAF2 gene expression in human HT29 cells after 6 hrs; assay type: functional
HT-29 [55] = assay: Effect on proapoptotic CASP6 gene expression in human HT29 cells after 6 hrs; assay type: functional
HT-29 [56] = assay: Effect on proapoptotic FADD gene expression in human HT29 cells after 6 hrs; assay type: functional
HT-29 [57] = assay: Effect on proapoptotic CD70 gene expression in human HT29 cells after 6 hrs; assay type: functional
HT-29 [58] = assay: Effect on proapoptotic BID gene expression in human HT29 cells after 6 hrs; assay type: functional
HT-29 [59] = assay: Effect on apoptosis in human HT29 PI-/AnnV+ cells after 12 hrs by biparametric flow cytometric analysis; assay type: functional; settings: HT-29, 12 h, read-out: LC50 (the source's name)
HT-29 [60] = assay: Effect on apoptosis in human HT29 PI-/AnnV+ cells after 6 hrs by biparametric flow cytometric analysis; assay type: functional; settings: HT-29, 6 h, read-out: LC50 (the source's name)
HT-29 [61] = assay: Effect on proapoptotic CASP9 gene expression in human HT29 cells after 12 hrs; assay type: functional
HT-29 [62] = assay: Effect on proapoptotic TRAF4 gene expression in human HT29 cells after 12 hrs; assay type: functional
HT-29 [63] = assay: Effect on apoptotic BCL2L1 gene expression in human HT29 cells after 12 hrs; assay type: functional
HT-29 [64] = assay: Effect on apoptosis in human HT29 PI+/AnnV- cells after 12 hrs by biparametric flow cytometric analysis; assay type: functional; settings: HT-29, 12 h, read-out: LC50 (the source's name)
HT-29 [65] = assay: Effect on proapoptotic CD27 gene expression in human HT29 cells after 12 hrs; assay type: functional
HT-29 [66] = assay: Effect on proapoptotic BAX gene expression in human HT29 cells after 6 hrs; assay type: functional
HT-29 [67] = assay: Effect on proapoptotic TP53 gene expression in human HT29 cells after 6 hrs; assay type: functional
HT-29 [68] = assay: Effect on proapoptotic BCL2 gene expression in human HT29 cells after 12 hrs; assay type: functional
HT-29 [69] = assay: Effect on proapoptotic BCL2L11 gene expression in human HT29 cells after 6 hrs; assay type: functional
HT-29 [70] = assay: Effect on proapoptotic BIK gene expression in human HT29 cells after 6 hrs; assay type: functional
HT-29 [71] = assay: Effect on apoptotic BIRC4 gene expression in human HT29 cells after 12 hrs; assay type: functional
HT-29 [72] = assay: Effect on apoptotic NAIP gene expression in human HT29 cells after 12 hrs; assay type: functional
HT-29 [73] = assay: Cytotoxicity against human HT29 cells after 72 hrs; assay type: functional; settings: HT-29, 72 h
HT-29 [74] = assay: Effect on proapoptotic TNFRSF21 gene expression in human HT29 cells after 6 hrs; assay type: functional

CN(C)CCNc1ccc(NCCCN(C)CCCNc2ccc(NCCN(C)C)c3c2C(=O)c2cnccc2C3=O)c2c1C(=O)c1ccncc1C2=O
Fold change (HT-29 [1]): 4.3 | Fold change (HT-29 [2]): 4 | Fold change (HT-29 [3]): 3 | Fold change (HT-29 [4]): 4.4 | Ratio [5]: 2.5 | Fold change (HT-29 [6]): -2.3 | Fold change (HT-29 [7]): 15 | Fold change (HT-29 [8]): 94 | CC50 (HT-29 [9]): 18.3 µM | Fold change (HT-29 [10]): 2.1 | Fold change (HT-29 [11]): 4.1 | Fold change (HT-29 [12]): 4 | Fold change (HT-29 [13]): 2.2 | CC50 (HT-29 [14]): 36.3 µM | Fold change (HT-29 [15]): 2.5 | Fold change (HT-29 [16]): 2.2 | Fold change (HT-29 [17]): 9.3 | Fold change (HT-29 [18]): 3 | Fold change (HT-29 [19]): 4.2 | Fold change (HT-29 [20]): 136 | Fold change (HT-29 [21]): -3.3 | Fold change (HT-29 [22]): 4.7 | Fold change (HT-29 [23]): 3.6 | Fold change (HT-29 [24]): -5 | Fold change (HT-29 [25]): -2.5 | Fold change (HT-29 [26]): 6.4 | CC50 (HT-29 [27]): 88.5 µM | CC50 (HT-29 [28]): 0.8 µM | Fold change (HT-29 [29]): 58 | Fold change (HT-29 [30]): 3 | CC50 (HT-29 [31]): 37.1 µM | Fold change (HT-29 [32]): 3.1 | CC50 (HT-29 [33]): 83.2 µM | Fold change (HT-29 [34]): 2.5 | Fold change (HT-29 [35]): 9.6 | Fold change (HT-29 [36]): 2.4 | Fold change (HT-29 [37]): 4.2 | CC50 (HT-29 [38]): 3.3 µM | CC50 (HT-29 [39]): 8.3 µM | Fold change (HT-29 [40]): 4.5 | Fold change (HT-29 [41]): -2.9 | Fold change (HT-29 [42]): 3 | CC50 (HT-29 [43]): 1.2 µM | Fold change (HT-29 [44]): 7.8 | Fold change (HT-29 [45]): 2.2 | Fold change (HT-29 [46]): 7.4 | Fold change (HT-29 [47]): 33 | Fold change (HT-29 [48]): 3 | Fold change (HT-29 [49]): 2.5 | Fold change (HT-29 [50]): 4.5 | Fold change (HT-29 [51]): 9.3 | Fold change (HT-29 [52]): -10 | Fold change (HT-29 [53]): 5.4 | Fold change (HT-29 [54]): 2.4 | Fold change (HT-29 [55]): 3 | Fold change (HT-29 [56]): 2.4 | Fold change (HT-29 [57]): 2.2 | Fold change (HT-29 [58]): 4.3 | CC50 (HT-29 [59]): 10.3 µM | CC50 (HT-29 [60]): 7.4 µM | Fold change (HT-29 [61]): 8.5 | Fold change (HT-29 [62]): 23 | Fold change (HT-29 [63]): -5.9 | CC50 (HT-29 [64]): 5.3 µM | Fold change (HT-29 [65]): 2.2 | Fold change (HT-29 [66]): 5.3 | Fold change (HT-29 [67]): 3 | Fold change (HT-29 [68]): -5.9 | Fold change (HT-29 [69]): 7.7 | Fold change (HT-29 [70]): 5.2 | Fold change (HT-29 [71]): 2 | Fold change (HT-29 [72]): 52 | GI50 (HT-29 [73]): 0.3 µM | LC50 (concentration killing 50% of cells) (HT-29 [73]): 62 µM | TGI (HT-29 [73]): 5.1 µM | Fold change (HT-29 [74]): 3.7
